According to article PMC7182600 (Influenza and Other Respiratory Viruses, 2020):

Target: NA of rPhuket3073/Yamagata (wild‐type) (Influenza B virus, UniProt A0A1S5RAG6)
Type: biochemical
Details: read-out: IC50 values of NA inhibitors

NA of rPhuket3073/Yamagata (wild‐type), sequence (A0A1S5RAG6 entry or part of it, added parts left off): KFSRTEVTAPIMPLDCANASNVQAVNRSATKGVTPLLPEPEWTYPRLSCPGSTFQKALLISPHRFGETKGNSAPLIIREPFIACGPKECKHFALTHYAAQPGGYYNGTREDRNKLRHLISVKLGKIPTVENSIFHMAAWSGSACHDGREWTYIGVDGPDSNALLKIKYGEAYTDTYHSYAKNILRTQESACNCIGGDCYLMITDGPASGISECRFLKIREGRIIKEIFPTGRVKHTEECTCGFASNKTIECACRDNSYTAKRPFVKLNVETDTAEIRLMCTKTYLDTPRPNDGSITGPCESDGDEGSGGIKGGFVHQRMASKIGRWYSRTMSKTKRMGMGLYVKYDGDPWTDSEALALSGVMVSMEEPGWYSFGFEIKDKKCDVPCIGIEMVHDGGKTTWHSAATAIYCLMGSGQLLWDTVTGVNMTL

Peramivir
IC50: 500 pM
